Measured values: patent US11040053B2, “Compositions and methods for activating “stimulator of interferon gene”13 dependent signalling” (CHINOOK THERAPEUTICS, INC., priority 2015, dated 2021)
“Also recorded” adds a separate entry of the source.

Columns and labels:
hSTING(WT) = hSTING(WT) (Homo sapiens, UniProt Q86WV6, H232R); assay: Differential scanning fluorometry (DSF) binding to purified hSTING WT; design: DNA encoding amino acids 140-379 (amino acid numbering corresponding to Swiss Prot Q86WV6); 6xHIS (N, cleaved yes); SUMO (N, cleaved yes); made in house; host or cells: Rosetta2 (DE3) E. coli; conditions: for hSTING Tm Shift WT: DSF, 1 mg/ml STING AA140-379, ligand 1 mM; for binding relative to OH reference compound, in words: Table 4 comment, wild type hSTING
hSTING HAQ allele = biological target: T1, hSTING HAQ allele (Homo sapiens, UniProt Q86WV6, G230A/H232R/R293Q/R71H); assay: IRF-3 inducible secreted luciferase reporter in THP1-Dual cells without digitonin; assay type: cell-based; conditions: for EC50: without digitonin in THP1 cells (HAQ allele); for activity relative to OH reference compound, in words: Table 5 comment, THP1 cells without digitonin
T1 construct: a human monocyte cell line containing the hSTING HAQ allele; host or cells: THP1-Dual cells
How it was run: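 THP1-Dual cells were exposed for 30 min, washed, and cultured overnight at 37 °C in fresh RPMI/10% FBS. Secreted luciferase in the supernatant was read with QUANTI-Luc as the type I interferon signal. EC50 was taken from a 10-point serial-dilution dose-response curve.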

B16.SIY cells = assay: B16.SIY melanoma mouse model, intra-tumoral injection; assay type: in vivo, C57BL/6 mice; conditions: FIG. 14B, 5 μg IT, day 7 post-IT injection, vs HBSS control
Protocol: To determine whether the derivative molecules elicit anti-tumor immunity, 6-8 week old female C57BL/6 mice (8 mice per group) were implanted with B16.SIY cells (5×10^5 cells in 100 μL PBS). Mice were treated with reference compound 3′3′-RR-(A)(A) and di-F compound 3′3′-RR-(2′F-A)(2′F-A) (5, 50, 100 μg in a total volume of 40 μL HBSS), or HBSS vehicle control. Treatments began when tumors reached a volume of approximately 100 mm^3, on day 9 post tumor implantation. The CDN compounds were administered by […] injection into the center of the tumor (IT) using a 27 gauge needle. Mice were bled on day 16 post tumor implantation and PBMCs were isolated by Ficoll gradient (Miltenyi Biotech). 1×10^5 PBMCs were pre-incubated with anti-CD16/32 monoclonal antibody to block potential nonspecific binding, and labeled with PE-MHC class I pentamer (Proimmune) consisting of murine H-2Kb complexed to […] (SIY, SEQ ID NO: 16) peptide, anti-TCRβ-AF700 (H57-597), anti-CD8-Pacific Blue (53-6.7), anti-CD4-Pacific Orange (RM4-5) (all antibodies from BioLegend) and the Fixable Viability Dye eFluor 450 (eBioscience). Stained cells were analyzed using FACS Versa cytometer with FACSDiva software (BD). Data analysis was conducted with FlowJo software (Tree Star).

HAQ allele hSTING = biological target: T2, HAQ allele hSTING (Homo sapiens, UniProt Q86WV6, G230A/H232R/R293Q); assay: Differential scanning fluorometry (DSF) binding to purified hSTING HAQ allele; conditions: for hSTING Tm Shift HAQ: DSF, 1 mg/ml STING AA140-379, ligand 1 mM; for binding relative to OH reference compound, in words: Table 4 comment, HAQ allele hSTING
T2 construct: DNA encoding amino acids 140-379 (amino acid numbering corresponding to Swiss Prot Q86WV6); 6xHIS (N, cleaved yes); SUMO (N, cleaved yes); made in house; host or cells: Rosetta2 (DE3) E. coli

[1] = biological target: T3, reference (REF) STING allele (Homo sapiens, UniProt Q86WV6); assay: Cytokine transcript induction (qRT-PCR) in STING^REF/REF hPBMCs; assay type: cell-based; conditions: for cytokine responses (IFNβ, TNFα, IL-6, IFNγ, IL-12p40 expression), in words: FIGS. 9B-13B, 2 hours and 6 hours stimulation
T3 construct: endogenous in cells
Protocol: (§1) The induction of type I interferon was measured in human primary blood mononuclear cells (hPBMCs) to evaluate the potency of mono- or di-F-CDN compounds as described herein. hPBMCs from two unique donors were used: one donor was homozygous for the wild type (WT) STING allele (STING^WT/WT) and the other donor was homozygous for the so-called reference (REF) STING allele (STING^REF/REF). The STING genotype of these donors was determined by PCR amplification and sequencing: genomic DNA was isolated from 10^4 hPBMCs using Quick Extract DNA Extraction Solution (Epicentre) and was used to amplify regions of exon 3, 6, and 7 of the human STING gene.
(§2) Cells were incubated at 37° C., 5% CO2 with concentrations ranging from 100 μM to 0.1 μM of each CDN. After 2 hours (FIGS. 7 and 8) or 2 hours and 6 hours (FIGS. 9-13) stimulation, cells were harvested by centrifugation and washed once with phosphate-buffered saline. Cellular RNA was isolated using the Aurum Total RNA 96 Kit and cDNA was synthesized using the iScript cDNA Synthesis Kit. Target and reference gene expression was assessed by real-time qRT-PCR using PrimePCR probe assays and the CFX96 gene cycler (all reagents and equipment from BioRad). Normalized IFNβ expression was expressed relative to untreated cells. Target genes included type I interferon (IFNβ), Th1-associated cytokines (IFNγ, IL-12p40) and NF-kB dependent inflammatory cytokines (TNFα, IL-6). Reference genes included GUSB alone (FIGS. 7 and 8) or GUSB and HSP90AB1 (FIGS. 9-13).

hSTING(REF) [2] = biological target: T4, hSTING(REF) (Homo sapiens, UniProt Q86WV6); assay: Differential scanning fluorometry (DSF) binding to purified hSTING REF allele; design: DNA encoding amino acids 140-379 (amino acid numbering corresponding to Swiss Prot Q86WV6); 6xHIS (N, cleaved yes); SUMO (N, cleaved yes); made in house; host or cells: Rosetta2 (DE3) E. coli; conditions: for hSTING Tm Shift REF: DSF, 1 mg/ml STING AA140-379, ligand 1 mM; for binding relative to OH reference compound, in words: Table 4 comment, REF allele hSTING
Target sequence in this assay (Q86WV6 140-379): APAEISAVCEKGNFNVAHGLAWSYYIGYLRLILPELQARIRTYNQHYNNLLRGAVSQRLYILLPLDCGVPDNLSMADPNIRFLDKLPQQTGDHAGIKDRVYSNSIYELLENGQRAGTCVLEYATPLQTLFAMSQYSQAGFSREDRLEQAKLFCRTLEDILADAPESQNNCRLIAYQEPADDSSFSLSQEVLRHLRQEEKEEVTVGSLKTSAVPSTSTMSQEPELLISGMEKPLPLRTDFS

[3] = biological target: T5, wild type (WT) STING allele (Homo sapiens, UniProt Q86WV6, H232R); assay: Cytokine transcript induction (qRT-PCR) in STING^WT/WT hPBMCs; assay type: cell-based; conditions: FIGS. 7A-B, 2 hours stimulation, 100 μM to 0.1 μM
T5 construct: one donor was homozygous for the wild type (WT) STING allele; endogenous in cells; host or cells: human PBMCs, donor STING WT/WT
Protocol: as §1, §2

hSTING(REF) [4] = biological target: T4, hSTING(REF); assay: IFN-β luciferase reporter in HEK293T cells stably expressing hSTING(REF), digitonin permeabilization; conditions: FIGS. 6A-B, 0.1 μM to 100 μM and 6.25 μM CDN
Target sequence in this assay (Q86WV6 whole entry, the tested form may be a part): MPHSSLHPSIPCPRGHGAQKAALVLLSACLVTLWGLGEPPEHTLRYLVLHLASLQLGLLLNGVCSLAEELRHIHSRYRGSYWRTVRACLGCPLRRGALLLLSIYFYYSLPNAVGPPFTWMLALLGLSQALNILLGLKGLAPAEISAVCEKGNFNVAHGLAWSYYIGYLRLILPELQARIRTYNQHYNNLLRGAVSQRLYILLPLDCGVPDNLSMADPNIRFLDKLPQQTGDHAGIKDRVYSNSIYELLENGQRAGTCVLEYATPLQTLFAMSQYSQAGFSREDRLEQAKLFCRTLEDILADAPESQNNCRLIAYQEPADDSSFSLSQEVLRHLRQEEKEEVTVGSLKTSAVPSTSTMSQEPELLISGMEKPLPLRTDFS
Protocol: 24 hours later, cells were stimulated with native and synthetic CDN derivative molecules using digitonin permeabilization to ensure uniform uptake.
After 20 min, the stimulation mixtures were removed and 200 ul of DMEM media supplemented with 10% (vol/vol) fetal bovine serum, 1% L-Glutamine, and 1% Penicillin/Streptomycin was added. Cells were incubated an additional 6 hours (37° C., 5% CO2) and then cell lysates were prepared and reporter gene activity measured on a Spectramax M3 luminometer using the Dual-Glo Luciferase Assay System (Promega, catalog #E2920) as described by the manufacturer. IFNβ firefly luciferase reporter gene activity was normalized to TK renilla luciferase gene activity and plotted as fold induction over activity in unstimulated cells (mean+/−s.e.m.).

[5] = biological target: T6, human-STING(E149-S379)H232R protein (Homo sapiens, UniProt Q86WV6, H232R); assay: Surface Plasmon Resonance binding to hSTING WT; conditions: Biacore T200, 15° C., steady-state analysis
T6 construct: His6 (C); made in house; host or cells: E. coli
Protocol: Binding of the mono- and di-F CDN compounds was assessed using Surface Plasmon Resononce to determine a binding constant. An E. coli expression construct (human-STING[E149-S379]H232R) was prepared harboring the protein sequence:
Aliquots were prepared and stored at −80° C. in 30 mM Tris pH 7.5/100 mM NaCl/10% glycerol.
N-terminal avi-tagged human-STING(E149-S379)H232R protein was immobilized (2500 RUs) on a streptavidin chip at 15° C. in a Biacore T200 (GE Healthcare). Titrations of cyclic dinucleotides (CDNs as indicated in Table 6) in 30 mM Tris pH 7.5/50 mM NaCL/0.005% Tween 20/1 mM DTT/2% DMSO, were profiled (30 μLs/min, 180 seconds for sample contact/120 seconds for dissociation) against hSTING at 15° C. Kinetic analysis of the data was performed using Biacore T200 Evaluation software. Steady-state analysis of the data was performed using Graphpad Prism 6.0 software, using one site-specific binding algorithm (Equation is Y=Bmax*X/(Kd+X)).

hSTING(WT), sequence (Q86WV6 140-379 H232R): as the sequence (Q86WV6 140-379) above, with H93R counted along it
T3 sequence (Q86WV6 whole entry): as the sequence (Q86WV6 whole entry, the tested form may be a part) above
T2 sequence (Q86WV6 140-379 G230A/H232R/R293Q limits assumed): as the sequence (Q86WV6 140-379) above, with G91A, H93R, R154Q counted along it
T1 sequence (Q86WV6 whole entry R71H/G230A/H232R/R293Q): as the sequence (Q86WV6 whole entry, the tested form may be a part) above, with R71H, G230A, H232R, R293Q counted along it
T5 sequence (Q86WV6 whole entry H232R): as the sequence (Q86WV6 whole entry, the tested form may be a part) above, with H232R counted along it
T6 sequence (Q86WV6 with tags, fused parts or gaps H232R): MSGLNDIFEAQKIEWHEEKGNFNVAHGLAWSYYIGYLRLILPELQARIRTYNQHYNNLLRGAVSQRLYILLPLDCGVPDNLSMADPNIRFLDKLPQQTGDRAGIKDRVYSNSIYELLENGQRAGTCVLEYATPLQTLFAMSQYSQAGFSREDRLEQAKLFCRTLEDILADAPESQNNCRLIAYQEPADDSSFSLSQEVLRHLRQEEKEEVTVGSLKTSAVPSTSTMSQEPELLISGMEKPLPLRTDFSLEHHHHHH

hSTING Tm Shift WT (hSTING(WT))	EC50 (hSTING HAQ allele)	hSTING Tm Shift HAQ (HAQ allele hSTING)	hSTING Tm Shift REF (hSTING(REF) [2])	IFNβ luciferase reporter induction by hSTING(REF), in words (hSTING(REF) [4])	binding relative to OH reference compound, in words (hSTING(WT))	activity relative to OH reference compound, in words (hSTING HAQ allele)	Kd [5]	binding relative to OH reference compound, in words (HAQ allele hSTING)	binding relative to OH reference compound, in words (hSTING(REF) [2])	SMILES	percent of SIY-specific CD8+ T cells in PBMCs, in words (B16.SIY cells)	relative normalized IFNβ expression, in words ([1]; FIGS. 8A-B, 2 hours stimulation, 100 μM to 0.1 μM)	relative normalized IFNβ expression, in words [3]	cytokine responses (IFNβ, TNFα, IL-6, IFNγ, IL-12p40 expression), in words [1]
9.6 °C	25 µM	15.5 °C	5.7 °C	responded poorly						Nc1ncnc2c1ncn2[C@@H]1O[C@@H]2CO[P@@](=O)(S)O[C@H]3[C@@H](O)[C@H](n4cnc5c(N)ncnc54)O[C@@H]3CO[P@@](=O)(S)O[C@H]2[C@H]1O [3'3'-RR-(A)(A), reference compound]	elicited significantly SIY-specific CD8^+ T cells	did not stimulate production of appreciable IFNβ transcript levels	induced similar levels of IFNβ; also recorded: induced higher levels of IFNβ transcript when compared to the 3′3′-(A)(A) compound	
14.7 °C	15 µM	25.9 °C	9.5 °C		improved binding	improved activity	0.311 µM	improved binding	improved binding	Nc1nc2c(ncn2[C@@H]2O[C@@H]3CO[P@@](=O)(S)O[C@H]4[C@@H](O)[C@H](n5cnc6c(N)ncnc65)O[C@@H]4CO[P@@](=O)(S)O[C@H]3[C@H]2F)c(=O)[nH]1 [Compound 23, 2-amino-9-((2R,3R,3aR,5R,7aR,9R,10R,10aS,12R,14aR)-9-(6-amino-9H-purin-9-yl)-3-fluoro-10-hydroxy-5,12-dimercapto-5,12-dioxidooctahydro-2H,7H-difuro[3,2-d:3′,2′-j][1,3,7,9]tetraoxa[2,8]diphosphacyclododecin-2-yl)-1,9-dihydro-6H-purin-6-one]				induced more robust dose-dependent responses of each of the cytokines tested
15.9 °C	13 µM	28.8 °C	9.7 °C		improved binding	improved activity	0.037 µM	improved binding	improved binding	Nc1nc2c(ncn2[C@@H]2O[C@@H]3CO[P@@](=O)(S)O[C@H]4[C@@H](F)[C@H](n5cnc6c(N)ncnc65)O[C@@H]4CO[P@@](=O)(S)O[C@H]3[C@H]2O)c(=O)[nH]1 [Compound 24, 2-amino-9-((2R,3R,3aS,5R,7aR,9R,10R,10aR,12R,14aR)-9-(6-amino-9H-purin-9-yl)-10-fluoro-3-hydroxy-5,12-dimercapto-5,12-dioxidooctahydro-2H,7H-difuro[3,2-d:3′,2′-j][1,3,7,9]tetraoxa[2,8]diphosphacyclododecin-2-yl)-1,9-dihydro-6H-purin-6-one]				induced more robust dose-dependent responses of each of the cytokines tested
